Source: patent US20220323406A1, “METHODS AND COMPOSITIONS FOR DIFFERENTIATING STEM CELLS” (Massachusetts Institute of Technology, priority 2019, published 2022)

Legend:
[1] = test system: ENR+CD organoids (ISC to Paneth cell differentiation); assay: Primary screen: CCh-stimulated lysozyme secretion LYZ.S, 2.5-D 384-well ENR+CD organoid differentiation; assay type: cell-based, mouse; conditions: primary screen
Source text: (§1) High-throughput screening.

[2] = test system: ENR+CD organoids (ISC to Paneth cell differentiation); assay: Secondary (validation) screen: LYZ.S CCh-stimulated lysozyme secretion, 2.5-D 384-well ENR+CD organoids; assay type: cell-based, mouse; conditions: 6-day ENR+CD, vs ENR+CD+DMSO
Procedure: (§2) Drugs were tested at a narrowed dose range around each treatment's identified optimal dose from the primary screen (4× below, 2× above and below).
as §1
(§3) Secondary lysozyme secretion assay screen. Confirmatory secondary screening with primary hits was performed using the above 384-well plate method. The screen was conducted with 4-plate replicates with a base media of ENR+CD. Media was supplemented with compound at day 0 and day 3 (n=8 well replicates per dose) at four different doses: two-fold above, two-fold below, and four-fold below the optimal final dose for each respective treatment. Additionally, each plate carried a large number of ENR+DMSO or ENR+CD+DMSO (vehicle) control wells (n=100 for ATP, and n=25 for LYZ.NS and LYZ.S) for robust normalization. ATP, non-stimulated lysozyme activity and CCh-stimulated lysozyme activity was again measured and the collected data was again processed in a custom R-script, per primary screen with slight modification. Values were log10 transformed, and a plate-wise FC was calculated for each well based on the median value of ENR+CD+DMSO (vehicle) control wells to normalize plate to plate variability.

[3] = test system: ENR+CD organoids (ISC to Paneth cell differentiation); assay: Secondary (validation) screen: LYZ.NS basal lysozyme secretion, 2.5-D 384-well ENR+CD organoids; assay type: cell-based, mouse; conditions: for Dose.FC.LYZ.NS / Z.LYZ.NS / repSSMD.LYZ.NS: 6-day ENR+CD, vs ENR+CD+DMSO
Procedure: as §2, §1, §3

ENR+CD organoids [4] = assay: Secondary (validation) screen: ATP (CTG) assay, 2.5-D 384-well ENR+CD organoids; assay type: cell-based, mouse; conditions: 6-day ENR+CD, vs ENR+CD+DMSO
Procedure: as §2, §1, §3

[5] = test system: ENR+CD organoids (ISC to Paneth cell differentiation); assay: Primary screen: basal (non-stimulated) lysozyme secretion LYZ.NS, 2.5-D 384-well ENR+CD organoid differentiation; assay type: cell-based, mouse
Source text: as §1

ENR+CD organoids [6] = assay: Primary screen: ATP (CellTiter-Glo 3D, CTG) cell number/viability, 2.5-D 384-well ENR+CD organoids; conditions: primary screen; for Z.CTG: standard z score;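 on all read-outs here: compounds given at plating and again on day 3 over a 6-day differentiation from ENR+CV stem-cell-enriched precursors, ATP measured on day 6, plate median as control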
[7] = dose 0.08 uM, FC vs plate median
[8] = dose 0.40 uM, FC vs plate median
[9] = dose 2.00 uM, FC vs plate median
[10] = dose 10.00 uM, FC vs plate median

Question: With `CCOc1ccc(Cc2cc([C@@H]3O[C@H](CO)[C@@H](O)[C@H](O)[C@H]3O)ccc2Cl)cc1` [Dapagliflozin, reference compound] as the compound, how does the Dose.FC.LYZ.S ([1]; dose 0.08 uM) read?
Answer: 0.294 log2 fold change

Question: What about the Dose.FC.LYZ.S ([1]; dose 0.40 uM) of the same compound?
Answer: 0.135 log2 fold change

Question: What about the Dose.FC.LYZ.S ([1]; dose 2.00 uM) of the same compound?
Answer: 0.166 log2 fold change

Question: What about the Dose.FC.LYZ.S ([1]; dose 10.00 uM) of the same compound?
Answer: 0.145 log2 fold change

Question: And the Dose.FC.LYZ.S ([2]; 0.02 uM)?
Answer: −0.019 log2 fold change

Question: And the Dose.FC.LYZ.S ([2]; 0.04 uM)?
Answer: 0.069 log2 fold change

Question: What about the Dose.FC.LYZ.S ([2]; 0.08 uM) of the same compound?
Answer: 0.069 log2 fold change

Question: And the Dose.FC.LYZ.S ([2]; […])?
Answer: −0.082 log2 fold change

Question: And the Dose.FC.LYZ.NS ([3]; 0.02 uM)?
Answer: 0.022 log2 fold change

Question: What about the Dose.FC.LYZ.NS ([3]; 0.04 uM) of the same compound?
Answer: 0.150 log2 fold change

Question: And the Dose.FC.LYZ.NS ([3]; 0.08 uM)?
Answer: 0.058 log2 fold change

Question: What about the Dose.FC.LYZ.NS ([3]; […]) of the same compound?
Answer: −0.060 log2 fold change

Question: What about the Dose.FC.CTG (ENR+CD organoids [4]; 0.02 uM) of the same compound?
Answer: 0.085 log2 fold change

Question: What about the Dose.FC.CTG (ENR+CD organoids [4]; 0.04 uM) of the same compound?
Answer: 0.174 log2 fold change

Question: And the Dose.FC.CTG (ENR+CD organoids [4]; 0.08 uM)?
Answer: 0.149 log2 fold change

Question: What about the Dose.FC.CTG (ENR+CD organoids [4]; […]) of the same compound?
Answer: 0.035 log2 fold change

Question: And the Dose.FC.LYZ.NS ([5]; primary screen, dose 0.08 uM)?
Answer: 0.170 log2 fold change

Question: And the Dose.FC.LYZ.NS ([5]; primary screen, dose 0.40 uM)?
Answer: 0.097 log2 fold change

Question: And the Dose.FC.LYZ.NS ([5]; primary screen, dose 2.00 uM)?
Answer: 0.159 log2 fold change

Question: What about the Dose.FC.LYZ.NS ([5]; primary screen, dose 10.00 uM) of the same compound?
Answer: 0.136 log2 fold change

Question: What about the Z.LYZ.NS ([5]; primary screen, standard z score, dose 0.08 uM) of the same compound?
Answer: 1.481

Question: And the Z.LYZ.NS ([5]; primary screen, standard z score, dose 0.40 uM)?
Answer: 0.842

Question: And the Z.LYZ.NS ([5]; primary screen, standard z score, dose 2.00 uM)?
Answer: 1.386

Question: And the Z.LYZ.NS ([5]; primary screen, standard z score, dose 10.00 uM)?
Answer: 1.182

Question: What about the Dose.FC.CTG (ENR+CD organoids [6]; dose 0.08 uM) of the same compound?
Answer: 0.410 log2 fold change

Question: What about the Dose.FC.CTG (ENR+CD organoids [6]; dose 0.40 uM) of the same compound?
Answer: 0.254 log2 fold change

Question: What about the Dose.FC.CTG (ENR+CD organoids [6]; dose 2.00 uM) of the same compound?
Answer: 0.293 log2 fold change

Question: What about the Dose.FC.CTG (ENR+CD organoids [6]; dose 10.00 uM) of the same compound?
Answer: 0.301 log2 fold change

Question: What does the source list for `Cc1[nH]c(/C=C2\C(=O)Nc3ccc(S(=O)(=O)Cc4c(Cl)cccc4Cl)cc32)c(C)c1C(=O)N1CCC[C@@H]1CN1CCCC1` [PHA-665752]?
Answer: Dose.FC.LYZ.S [1, 7]: 0.163 log2 fold change; Dose.FC.LYZ.S [1, 8]: 0.373 log2 fold change; Dose.FC.LYZ.S [1, 9]: 0.143 log2 fold change; Dose.FC.LYZ.S [1, 10]: −0.165 log2 fold change; Dose.FC.LYZ.S ([2]; 0.10 uM): 0.133 log2 fold change; Z.LYZ.S ([2]; 0.10 uM): 1.019; repSSMD.LYZ.S ([2]; 0.10 uM): 1.586; Dose.FC.LYZ.S ([2]; 0.20 uM): −0.089 log2 fold change; Z.LYZ.S ([2]; 0.20 uM): −0.680; repSSMD.LYZ.S ([2]; 0.20 uM): −1.201; Dose.FC.LYZ.S ([2]; 0.40 uM): 0.076 log2 fold change; Z.LYZ.S ([2]; 0.40 uM): 0.585; repSSMD.LYZ.S ([2]; 0.40 uM): 0.906; Dose.FC.LYZ.S ([2]; 0.80 uM): 0.048 log2 fold change; Z.LYZ.S ([2]; 0.80 uM): 0.365; repSSMD.LYZ.S ([2]; 0.80 uM): 0.542; Dose.FC.LYZ.NS ([3]; 0.10 uM): 0.210 log2 fold change; Z.LYZ.NS ([3]; 0.10 uM): 1.675; repSSMD.LYZ.NS ([3]; 0.10 uM): 2.400; Dose.FC.LYZ.NS ([3]; 0.20 uM): −0.027 log2 fold change; Z.LYZ.NS ([3]; 0.20 uM): −0.219; repSSMD.LYZ.NS ([3]; 0.20 uM): −0.350; Dose.FC.LYZ.NS ([3]; 0.40 uM): 0.099 log2 fold change; Z.LYZ.NS ([3]; 0.40 uM): 0.789; repSSMD.LYZ.NS ([3]; 0.40 uM): 0.942; Dose.FC.LYZ.NS ([3]; 0.80 uM): 0.090 log2 fold change; Z.LYZ.NS ([3]; 0.80 uM): 0.722; repSSMD.LYZ.NS ([3]; 0.80 uM): 1.142; validated doses in secondary screen (SSMD above cutoff in both LYZ assays) ([3]; LYZ.NS and LYZ.S): multiple validated doses; Dose.FC.CTG (ENR+CD organoids [4]; 0.10 uM): 0.100 log2 fold change; Z.CTG (ENR+CD organoids [4]; 0.10 uM): 0.898; repSSMD.CTG (ENR+CD organoids [4]; 0.10 uM): 0.755; Dose.FC.CTG (ENR+CD organoids [4]; 0.20 uM): −0.032 log2 fold change; Z.CTG (ENR+CD organoids [4]; 0.20 uM): −0.288; repSSMD.CTG (ENR+CD organoids [4]; 0.20 uM): −0.244; Dose.FC.CTG (ENR+CD organoids [4]; 0.40 uM): 0.303 log2 fold change; Z.CTG (ENR+CD organoids [4]; 0.40 uM): 2.735; repSSMD.CTG (ENR+CD organoids [4]; 0.40 uM): 1.415; Dose.FC.CTG (ENR+CD organoids [4]; 0.80 uM): 0.185 log2 fold change; Z.CTG (ENR+CD organoids [4]; 0.80 uM): 1.664; repSSMD.CTG (ENR+CD organoids [4]; 0.80 uM): 1.023; Z.LYZ.NS ([5]; primary screen, dose 0.08 uM, standard z score): 1.586; Z.LYZ.NS ([5]; primary screen, dose 0.40 uM, standard z score): 2.368; Z.LYZ.NS ([5]; primary screen, dose 2.00 uM, standard z score): 1.591; Z.LYZ.NS ([5]; primary screen, dose 10.00 uM, standard z score): −0.931; Dose.FC.LYZ.NS ([5]; primary screen; dose 0.08 uM; FC vs plate median): 0.182 log2 fold change; Dose.FC.LYZ.NS ([5]; primary screen; dose 0.40 uM; FC vs plate median): 0.272 log2 fold change; Dose.FC.LYZ.NS ([5]; primary screen; dose 2.00 uM; FC vs plate median): 0.183 log2 fold change; Dose.FC.LYZ.NS ([5]; primary screen; dose 10.00 uM; FC vs plate median): −0.107 log2 fold change; Z.CTG (ENR+CD organoids [6]; dose 0.08 uM): 1.126; Z.CTG (ENR+CD organoids [6]; dose 0.40 uM): 1.482; Z.CTG (ENR+CD organoids [6]; dose 2.00 uM): 1.339; Z.CTG (ENR+CD organoids [6]; dose 10.00 uM): 0.057; Dose.FC.CTG (ENR+CD organoids [6]; [7]): 0.471 log2 fold change; Dose.FC.CTG (ENR+CD organoids [6]; [8]): 0.620 log2 fold change; Dose.FC.CTG (ENR+CD organoids [6]; [9]): 0.561 log2 fold change; Dose.FC.CTG (ENR+CD organoids [6]; [10]): 0.024 log2 fold change
